Results published in PubChem BioAssay (NCI).
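Following 48 hours of exposure in 96-well plates, responses at five concentrations were used to interpolate endpoints linearly. The concentration for 50% growth inhibition is given as GI50. TGI denotes the concentration required for complete inhibition of growth.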

Legend:
Assay in all cases: NCI anticancer screen, dose series, 48 h; in the data active means GI50 below about 0.43 µM; inactive means the rest
A549 NSCLC = system: A549 NSCLC
CAKI-1 renal = system: CAKI-1 renal
COLO 205 colon = system: COLO 205 colon
DLD-1 colon = system: DLD-1 colon
DMS 273 small cell lung = system: DMS 273 small cell lung
EKVX NSCLC = system: EKVX NSCLC
HCC-2998 colon = system: HCC-2998 colon
HCT-116 colon = system: HCT-116 colon
HCT-15 colon = system: HCT-15 colon
HOP-18 NSCLC = system: HOP-18 NSCLC
KM20L2 colon = system: KM20L2 colon
LOX IMVI melanoma = system: LOX IMVI melanoma
LXFL 529 NSCLC = system: LXFL 529 NSCLC
M14 melanoma = system: M14 melanoma
MALME-3M melanoma = system: MALME-3M melanoma
NCI-H226 lung = system: NCI-H226 lung
NCI-H23 lung = system: NCI-H23 lung
NCI-H460 lung = system: NCI-H460 lung
NCI-H522 lung = system: NCI-H522 lung
OVCAR-3 ovarian = system: OVCAR-3 ovarian
OVCAR-4 ovarian = system: OVCAR-4 ovarian
OVCAR-5 ovarian = system: OVCAR-5 ovarian
OVCAR-8 ovarian = system: OVCAR-8 ovarian
RPMI-8226 leukemia = system: RPMI-8226 leukemia
RXF 393 renal = system: RXF 393 renal
SF-295 CNS = system: SF-295 CNS
SF-539 CNS = system: SF-539 CNS
SK-MEL-2 melanoma = system: SK-MEL-2 melanoma
SK-MEL-28 melanoma = system: SK-MEL-28 melanoma
SK-MEL-5 melanoma = system: SK-MEL-5 melanoma
SN12C renal = system: SN12C renal
SNB-19 CNS = system: SNB-19 CNS
SNB-75 CNS = system: SNB-75 CNS
SNB-78 CNS = system: SNB-78 CNS
SR leukemia = system: SR leukemia
SW-620 colon = system: SW-620 colon
TK-10 renal = system: TK-10 renal
U251 CNS = system: U251 CNS
UACC-62 melanoma = system: UACC-62 melanoma
UO-31 renal = system: UO-31 renal
786-0 renal = system: 786-0 renal
A498 renal = system: A498 renal
ACHN renal = system: ACHN renal
CCRF-CEM leukemia = system: CCRF-CEM leukemia
DMS 114 small cell lung = system: DMS 114 small cell lung
DU-145 prostate = system: DU-145 prostate
HL-60(TB) leukemia = system: HL-60(TB) leukemia
HOP-62 NSCLC = system: HOP-62 NSCLC
HOP-92 NSCLC = system: HOP-92 NSCLC
HS 578T breast = system: HS 578T breast
HT29 colon = system: HT29 colon
IGROV1 ovarian = system: IGROV1 ovarian
K-562 leukemia = system: K-562 leukemia
KM12 colon = system: KM12 colon
M19-MEL melanoma = system: M19-MEL melanoma
MCF7 breast = system: MCF7 breast
MDA-MB-231 breast = system: MDA-MB-231 breast
MDA-MB-435 = system: MDA-MB-435
MDA-N = system: MDA-N
MOLT-4 leukemia = system: MOLT-4 leukemia
NCI/ADR-RES ovarian = system: NCI/ADR-RES ovarian
PC-3 prostate = system: PC-3 prostate
SF-268 CNS = system: SF-268 CNS
SK-OV-3 ovarian = system: SK-OV-3 ovarian
T-47D breast = system: T-47D breast
UACC-257 melanoma = system: UACC-257 melanoma

O=C([O-])CC(=O)[O-].O=C([O-])CC(=O)[O-].[K+].[Pd+2]
> 100 µM: TGI (A549 NSCLC) | TGI (CAKI-1 renal) | TGI (COLO 205 colon) | TGI (DLD-1 colon) | TGI (DMS 273 small cell lung) | TGI (EKVX NSCLC) | TGI (HCC-2998 colon) | TGI (HCT-116 colon) | TGI (HCT-15 colon) | TGI (HOP-18 NSCLC) | TGI (KM20L2 colon) | TGI (LOX IMVI melanoma) | TGI (LXFL 529 NSCLC) | TGI (M14 melanoma) | TGI (MALME-3M melanoma) | TGI (NCI-H226 lung) | TGI (NCI-H23 lung) | TGI (NCI-H460 lung) | TGI (NCI-H522 lung) | TGI (OVCAR-3 ovarian) | TGI (OVCAR-4 ovarian) | TGI (OVCAR-5 ovarian) | TGI (OVCAR-8 ovarian) | TGI (RPMI-8226 leukemia) | TGI (RXF 393 renal) | TGI (SF-295 CNS) | TGI (SF-539 CNS) | TGI (SK-MEL-2 melanoma) | TGI (SK-MEL-28 melanoma) | TGI (SK-MEL-5 melanoma) | TGI (SN12C renal) | TGI (SNB-19 CNS) | TGI (SNB-75 CNS) | TGI (SNB-78 CNS) | TGI (SR leukemia) | TGI (SW-620 colon) | TGI (TK-10 renal) | TGI (U251 CNS) | TGI (UACC-62 melanoma) | TGI (UO-31 renal)
inactive: GI50 (A549 NSCLC) > 100 µM | GI50 (CAKI-1 renal) > 100 µM | GI50 (COLO 205 colon) > 100 µM | GI50 (DLD-1 colon) > 100 µM | GI50 (DMS 273 small cell lung) > 100 µM | GI50 (EKVX NSCLC) > 100 µM | GI50 (HCC-2998 colon) > 100 µM | GI50 (HCT-116 colon) > 100 µM | GI50 (HCT-15 colon) > 100 µM | GI50 (HOP-18 NSCLC) > 100 µM | GI50 (KM20L2 colon) > 100 µM | GI50 (LOX IMVI melanoma) > 100 µM | GI50 (LXFL 529 NSCLC) > 100 µM | GI50 (M14 melanoma) > 100 µM | GI50 (MALME-3M melanoma) > 100 µM | GI50 (NCI-H226 lung) > 100 µM | GI50 (NCI-H23 lung) > 100 µM | GI50 (NCI-H460 lung) > 100 µM | GI50 (NCI-H522 lung) > 100 µM | GI50 (OVCAR-3 ovarian) > 100 µM | GI50 (OVCAR-4 ovarian) > 100 µM | GI50 (OVCAR-5 ovarian) > 100 µM | GI50 (OVCAR-8 ovarian) > 100 µM | GI50 (RPMI-8226 leukemia) > 100 µM | GI50 (RXF 393 renal) > 100 µM | GI50 (SF-295 CNS) > 100 µM | GI50 (SF-539 CNS) > 100 µM | GI50 (SK-MEL-2 melanoma) > 100 µM | GI50 (SK-MEL-28 melanoma) > 100 µM | GI50 (SK-MEL-5 melanoma) > 100 µM | GI50 (SN12C renal) > 100 µM | GI50 (SNB-19 CNS) > 100 µM | GI50 (SNB-75 CNS) > 100 µM | GI50 (SNB-78 CNS) > 100 µM | GI50 (SR leukemia) > 100 µM | GI50 (SW-620 colon) > 100 µM | GI50 (TK-10 renal) > 100 µM | GI50 (U251 CNS) > 100 µM | GI50 (UACC-62 melanoma) > 100 µM | GI50 (UO-31 renal) > 100 µM

Cc1cc(=O)[nH]c(NN2C(Cl)C(=O)C2c2ccccc2O)n1 (stereo not given)
40.4 µM: TGI (NCI/ADR-RES ovarian)
9.16 µM: TGI (NCI-H226 lung)
> 65.4 µM: TGI (SK-MEL-28 melanoma)
15.3 µM: TGI (DMS 273 small cell lung)
> 64 µM: TGI (SN12C renal)
> 42.7 µM: TGI (HCT-116 colon)
> 58.6 µM: TGI (SF-539 CNS)
54.5 µM: TGI (LXFL 529 NSCLC)
> 46.7 µM: TGI (UACC-62 melanoma)
> 76.2 µM: TGI (SNB-75 CNS)
> 78.1 µM: TGI (UO-31 renal)
23.3 µM: TGI (OVCAR-3 ovarian)
8.97 µM: TGI (HOP-18 NSCLC)
32.4 µM: TGI (HOP-92 NSCLC)
17.2 µM: TGI (SK-MEL-5 melanoma)
6.44 µM: TGI (DMS 114 small cell lung)
> 34.7 µM: TGI (M14 melanoma)
> 75.1 µM: TGI (EKVX NSCLC)
> 76.8 µM: TGI (COLO 205 colon)
> 100 µM: TGI (786-0 renal) | TGI (A498 renal) | TGI (A549 NSCLC) | TGI (ACHN renal) | TGI (CAKI-1 renal) | TGI (CCRF-CEM leukemia) | TGI (DU-145 prostate) | TGI (HCC-2998 colon) | TGI (HCT-15 colon) | TGI (HL-60(TB) leukemia) | TGI (HOP-62 NSCLC) | TGI (HS 578T breast) | TGI (HT29 colon) | TGI (IGROV1 ovarian) | TGI (K-562 leukemia) | TGI (KM12 colon) | TGI (KM20L2 colon) | TGI (LOX IMVI melanoma) | TGI (M19-MEL melanoma) | TGI (MCF7 breast) | TGI (MDA-MB-231 breast) | TGI (MDA-MB-435) | TGI (MDA-N) | TGI (MOLT-4 leukemia) | TGI (NCI-H23 lung) | TGI (NCI-H460 lung) | TGI (OVCAR-4 ovarian) | TGI (OVCAR-5 ovarian) | TGI (OVCAR-8 ovarian) | TGI (PC-3 prostate) | TGI (RXF 393 renal) | TGI (SF-268 CNS) | TGI (SF-295 CNS) | TGI (SK-MEL-2 melanoma) | TGI (SK-OV-3 ovarian) | TGI (SNB-19 CNS) | TGI (SNB-78 CNS) | TGI (SR leukemia) | TGI (SW-620 colon) | TGI (T-47D breast) | TGI (TK-10 renal) | TGI (U251 CNS) | TGI (UACC-257 melanoma)
> 63.2 µM: TGI (RPMI-8226 leukemia)

CNS(=O)(=O)NNS(=O)(=O)c1ccc2ccccc2c1
> 100 µM: TGI (786-0 renal) | TGI (A498 renal) | TGI (A549 NSCLC) | TGI (ACHN renal) | TGI (CAKI-1 renal) | TGI (CCRF-CEM leukemia) | TGI (COLO 205 colon) | TGI (DLD-1 colon) | TGI (DMS 114 small cell lung) | TGI (DMS 273 small cell lung) | TGI (EKVX NSCLC) | TGI (HCC-2998 colon) | TGI (HCT-116 colon) | TGI (HCT-15 colon) | TGI (HL-60(TB) leukemia) | TGI (HOP-18 NSCLC) | TGI (HOP-62 NSCLC) | TGI (HT29 colon) | TGI (IGROV1 ovarian) | TGI (K-562 leukemia) | TGI (KM12 colon) | TGI (KM20L2 colon) | TGI (LOX IMVI melanoma) | TGI (LXFL 529 NSCLC) | TGI (M14 melanoma) | TGI (M19-MEL melanoma) | TGI (MALME-3M melanoma) | TGI (MOLT-4 leukemia) | TGI (NCI-H226 lung) | TGI (NCI-H23 lung) | TGI (NCI-H460 lung) | TGI (NCI-H522 lung) | TGI (OVCAR-3 ovarian) | TGI (OVCAR-4 ovarian) | TGI (OVCAR-5 ovarian) | TGI (OVCAR-8 ovarian) | TGI (RPMI-8226 leukemia) | TGI (SF-268 CNS) | TGI (SF-295 CNS) | TGI (SF-539 CNS) | TGI (SK-MEL-2 melanoma) | TGI (SK-MEL-28 melanoma) | TGI (SK-MEL-5 melanoma) | TGI (SK-OV-3 ovarian) | TGI (SN12C renal) | TGI (SNB-19 CNS) | TGI (SNB-75 CNS) | TGI (SNB-78 CNS) | TGI (SR leukemia) | TGI (SW-620 colon) | TGI (TK-10 renal) | TGI (U251 CNS) | TGI (UACC-257 melanoma) | TGI (UACC-62 melanoma) | TGI (UO-31 renal)

COc1ccc(C(=O)C(C(=O)CCC(=O)Nc2ccc(C)c(C)c2)c2ccc(OC)cc2)cc1 (stereo not given)
> 100 µM: TGI (CAKI-1 renal) | TGI (COLO 205 colon) | TGI (DMS 114 small cell lung) | TGI (DMS 273 small cell lung) | TGI (HCC-2998 colon) | TGI (HCT-116 colon) | TGI (HCT-15 colon) | TGI (HL-60(TB) leukemia) | TGI (HOP-18 NSCLC) | TGI (HOP-62 NSCLC) | TGI (HOP-92 NSCLC) | TGI (HT29 colon) | TGI (KM12 colon) | TGI (KM20L2 colon) | TGI (LOX IMVI melanoma) | TGI (LXFL 529 NSCLC) | TGI (M14 melanoma) | TGI (M19-MEL melanoma) | TGI (MALME-3M melanoma) | TGI (NCI-H226 lung) | TGI (NCI-H460 lung) | TGI (OVCAR-3 ovarian) | TGI (OVCAR-4 ovarian) | TGI (OVCAR-5 ovarian) | TGI (OVCAR-8 ovarian) | TGI (SF-295 CNS) | TGI (SK-MEL-2 melanoma) | TGI (SN12C renal) | TGI (SR leukemia) | TGI (SW-620 colon) | TGI (UACC-257 melanoma) | TGI (UO-31 renal)
